# Biological target: T1, TrxR1 (thioredoxin reductase 1) (Rattus norvegicus, UniProt O89049)
# T1 construct: gene Txnrd1
# T1 sequence (O89049 1-499): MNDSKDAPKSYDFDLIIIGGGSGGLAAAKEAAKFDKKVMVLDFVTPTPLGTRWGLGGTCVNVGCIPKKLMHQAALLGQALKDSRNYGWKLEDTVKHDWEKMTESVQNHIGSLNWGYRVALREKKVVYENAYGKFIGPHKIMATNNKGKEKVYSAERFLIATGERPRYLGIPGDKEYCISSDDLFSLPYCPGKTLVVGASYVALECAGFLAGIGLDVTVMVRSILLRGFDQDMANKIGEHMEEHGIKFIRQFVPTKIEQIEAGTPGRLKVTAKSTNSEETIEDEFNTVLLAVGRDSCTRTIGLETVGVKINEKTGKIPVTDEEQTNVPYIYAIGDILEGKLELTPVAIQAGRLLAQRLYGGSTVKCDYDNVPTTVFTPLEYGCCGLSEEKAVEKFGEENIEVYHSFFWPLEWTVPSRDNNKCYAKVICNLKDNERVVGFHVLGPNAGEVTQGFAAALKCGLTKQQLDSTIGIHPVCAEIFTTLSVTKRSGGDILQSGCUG
# Experiment: biochemical
row,IC50,Structure (SMILES)
1,186 ± 14.9 µM,"CC[C@H](C)[C@H](NC(=O)C1CSSC1)C(=O)O [2g, 2-(1,2-Dithiolane-4-carboxamido)-3-methylpentanoic acid]"
2,5.3 ± 0.4 µM,"O=C(Nc1cc2ccccc2oc1=O)C1CSSC1 [2j, N-(2-Oxo-2H-chromen-3-yl)-1,2-dithiolane-4-carboxamide]"
3,36.3 ± 2.9 µM,"O=C(Nc1ccc2oc(=O)ccc2c1)C1CSSC1 [2k, N-(2-oxo-2H-chromen-6-yl)-1,2-dithiolane-4-carboxamide]"
